Carcinogen call data for ten compounds are collected here from PubChem BioAssay AID1259411 (Chemical Carcinogenesis Research Information System (CCRIS), 2018).

Active and inactive are the calls of the source. How the calls were made is not given here.

The subject of this data set is rodent carcinogenicity bioassays, tumor incidence. Put plainly: CCRIS carcinogenicity studies. The method, boiled down: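 NCI-built, expert-reviewed records of carcinogenicity and related test outcomes (mutagenicity, tumor promotion/inhibition) compiled from published and report sources, historical span 1985-2011, not updated.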

As for `N[C@@H](CCC(=O)NNc1ccc(CO)cc1)C(=O)O`, the carcinogen call was “inactive; negative” (Species: MOUSE, Strain/Sex: SWISS/FEMALE, Route: SUBCUTANEOUS, Dose: 0, 100 UG IN 0.01 ML PHYSIOLOGICAL SALINE 1/WK FOR 5 WK (STUDY DURATION: LIFETIME)); “inactive; negative” (Species: MOUSE, Strain/Sex: SWISS/FEMALE, Route: SUBCUTANEOUS, Dose: 0, 100 UG IN 0.01 ML PHYSIOLOGICAL SALINE ONCE (STUDY DURATION: LIFETIME)); “inactive; negative” (Species: MOUSE, Strain/Sex: SWISS/MALE, Route: SUBCUTANEOUS, Dose: 0, 50 UG IN 0.01 ML PHYSIOLOGICAL SALINE ONCE (STUDY DURATION: LIFETIME)); “inactive; negative” (Species: MOUSE, Strain/Sex: SWISS/MALE, Route: SUBCUTANEOUS, Dose: 0, 100 UG IN 0.01 ML PHYSIOLOGICAL SALINE 1/WK FOR 5 WK (STUDY DURATION: LIFETIME)).
As to `CN(C)C(=O)Cl`, the carcinogen call (Species: MOUSE, Route: DERMAL, Tumor Site: Type of Lesion: INTEGUMENTARY SYSTEM (SKIN)) was “active; positive” and the carcinogen call (Species: MOUSE, Route: INTRAPERITONEAL, SUBCUTANEOUS, Tumor Site: Type of Lesion: INJECTION SITE) is “active; positive”.
Take `Cc1c(C(=O)O)c(O)cc2c1C(=O)c1c(O)c([C@@H]3O[C@@H](CO)[C@H](O)[C@@H](O)[C@H]3O)c(O)c(O)c1C2=O`: the carcinogen call was “inactive; negative” (Species: RAT, Strain/Sex: WISTAR/FEMALE, Route: ORAL, Dose: 0, 50, 150, 500 MG/KG/D IN BASAL DIET TO PUPS OF PARENTS GIVEN THE SAME DIETARY DOSE LEVELS FOR 60 D PRIOR TO MATING AND, Dose: 0, 50, 150, 500 MG/KG/D IN BASAL DIET TO PUPS OF PARENTS GIVEN THE SAME DIETARY DOSE LEVELS FOR 60 D PRIOR TO MATING AND) and “inactive; negative” (Species: RAT, Strain/Sex: WISTAR/MALE, Route: ORAL, Dose: 0, 50, 150, 500 MG/KG/D IN BASAL DIET TO PUPS OF PARENTS GIVEN THE SAME DIETARY DOSE LEVELS FOR 60 D PRIOR TO MATING AND, Dose: 0, 50, 150, 500 MG/KG/D IN BASAL DIET TO PUPS OF PARENTS GIVEN THE SAME DIETARY DOSE LEVELS FOR 60 D PRIOR TO MATING AND).
Turning to `O=C(C1CCCCC1)N1CC(=O)N2CCc3ccccc3C2C1` (centres undefined), under “Species: HAMSTER, Strain/Sex: SYRIAN/MALE, Route: GAVAGE, Dose: 0, 300 MG/KG IN CORN OIL 1/5 WK FOR A TOTAL OF 5 DOSES (STUDY DURATION: 40 WK)”, the carcinogen call was “inactive; negative”.
With `CC1=NN(c2ccccc2)C(=O)C1`, the carcinogen call (Species: MOUSE, Strain/Sex: B6C3F1/FEMALE, Route: ORAL, Dose: 0, 7500, 15000 PPM IN DIET, Dose: 0, 7500, 15000 PPM IN DIET) is “inactive; negative”; the carcinogen call (Species: MOUSE, Strain/Sex: B6C3F1/MALE, Route: ORAL, Dose: 0, 7500, 15000 PPM IN DIET, Dose: 0, 7500, 15000 PPM IN DIET) was “inactive; negative”; the carcinogen call (Species: RAT, Strain/Sex: F344/FEMALE, Route: ORAL, Dose: 0, 2500, 5000 PPM IN DIET, Dose: 0, 2500, 5000 PPM IN DIET) is “inactive; negative”; the carcinogen call (Species: RAT, Strain/Sex: F344/MALE, Route: ORAL, Dose: 0, 2500, 5000 PPM IN DIET, Dose: 0, 2500, 5000 PPM IN DIET) was “inactive; negative”.
On to `O=CCCl`, for which the carcinogen call (Species: MOUSE, Strain/Sex: B6C3F1/MALE, Route: ORAL, Dose: 0, 0.1 G/L DISTILLED DRINKING WATER FOR STUDY DURATION (17 MG/KG/D) (STUDY DURATION: 104 WK), Tumor Site: Type of Lesion: LIVER: HEPATOCELLULAR CARCINOMA, HEPATOCELLULAR ADENOMA) was “active; positive”.
As to `[Be+2]`, the carcinogen call (Species: RAT, Strain/Sex: WISTAR/FEMALE, Route: INTRATRACHEAL, Dose: 50 UG THEN 25 UG AFTER 10 MO, Tumor Site: Type of Lesion: LUNG: ADENOMA, ADENOCARCINOMA, ALVEOLAR/BRONCHIOLAR TUMOR) is “active; positive”.
For the compound `[Cd]`, the carcinogen call is “active; positive” (Species: HUMAN, Route: INHALATION, ORAL, DERMAL, Tumor Site: Type of Lesion: PROSTATE GLAND); “active; positive” (Species: RAT, Strain/Sex: F344/MALE,FEMALE, Route: INTRAMUSCULAR, Dose: 5 MG GIVEN IN 2 INJECTIONS AT MONTHLY INTERVALS (STUDY DURATION: 12 MO), Tumor Site: Type of Lesion: INJECTION SITE: FIBROSARCOMA); “active; positive” (Species: RAT, Strain/Sex: LONG-EVANS/FEMALE, Route: INTRAMUSCULAR, Dose: 14, 28 MG, Tumor Site: Type of Lesion: INJECTION SITE: RHABDOMYOSARCOMA, FIBROSARCOMA).
`CC1CN1` (centres undefined): the carcinogen call is “active; positive” (Species: RAT, Strain/Sex: STRAIN-CD/FEMALE, Route: GAVAGE, Dose: 10.5, 20.7 MG/KG (AVE DOSE) IN WATER 2/WK FOR 58 WK (LOW DOSE) OR 27 WK (HIGH DOSE), Tumor Site: Type of Lesion: INTESTINES: ADENOCARCINOMA, BRAIN (CEREBRUM): GLIOMA, EAR (DUCT): SQUAMOUS CELL CARCINOMA, MAMMARY GLAND: ADENOCARCINOMA, Tumor Site: Type of Lesion: INTESTINES: ADENOCARCINOMA, BRAIN (CEREBRUM): GLIOMA, EAR (DUCT): SQUAMOUS CELL CARCINOMA, MAMMARY GLAND: ADENOCARCINOMA) and “active; positive” (Species: RAT, Strain/Sex: STRAIN-CD/MALE, Route: GAVAGE, Dose: 10.5, 20.7 MG/KG (AVE DOSE) IN WATER 2/WK FOR 58 WK (LOW DOSE) OR 27 WK (HIGH DOSE), Tumor Site: Type of Lesion: HEMATOPOIETIC SYSTEM (LEUKEMIA): GRANULOCYTIC LEUKEMIA, BRAIN (CEREBRUM): GLIOMA, EAR (DUCT): SQUAMOUS CELL CARCINOMA, I, Tumor Site: Type of Lesion: HEMATOPOIETIC SYSTEM (LEUKEMIA): GRANULOCYTIC LEUKEMIA, BRAIN (CEREBRUM): GLIOMA, EAR (DUCT): SQUAMOUS CELL CARCINOMA, I).
On to `C#CCN1C(=O)COc2cc(F)c(N3C(=O)C4=C(CCCC4)C3=O)cc21`, for which the carcinogen call was “inactive; negative” (Species: Mouse, Strain/Sex: Crj:CD-1 (ICR)/Female (51/Group), Route: Oral, Dose: 0, 36.6, 346.4, 859.1 mg/kg/day of 94.8% flumioxazin in diet for 78 wk, study duration 78 wk, Dose: 0, 36.6, 346.4, 859.1 mg/kg/day of 94.8% flumioxazin in diet for 78 wk, study duration 78 wk); “inactive; negative” (Species: Mouse, Strain/Sex: Crj:CD-1 (ICR)/Male (51/Group), Route: Oral, Dose: 0, 31.1, 314.9, 754.1 mg/kg/day of 94.8% flumioxazin in diet for 78 wk, study duration 78 wk, Dose: 0, 31.1, 314.9, 754.1 mg/kg/day of 94.8% flumioxazin in diet for 78 wk, study duration 78 wk); “inactive; negative” (Species: Rat, Strain/Sex: Crj:CD(SD)/Female (50/Group), Route: Oral, Dose: 0, 2.2, 21.8, 43.6 mg/kg/day of 94.8% flumioxazin in diet for up to 2 yr, study duration 2 yr, Dose: 0, 2.2, 21.8, 43.6 mg/kg/day of 94.8% flumioxazin in diet for up to 2 yr, study duration 2 yr); “inactive; negative” (Species: Rat, Strain/Sex: Crj:CD(SD)/Male (50/Group), Route: Oral, Dose: 0, 1.8, 18.0, 36.5 mg/kg/day of 94.8% flumioxazin in diet for up to 2 yr, study duration 2 yr, Dose: 0, 1.8, 18.0, 36.5 mg/kg/day of 94.8% flumioxazin in diet for up to 2 yr, study duration 2 yr).
